Data taken from patent publication US20240376099A1, “COMPOUNDS AND COMPOSITIONS AS INHIBITORS OF ENDOSOMAL TOLL-LIKE RECEPTORS” (Novartis AG, priority 2016, published 2024).

Target: T1, TLR8 (Homo sapiens, UniProt Q9NR97)
T1 sequence (Q9NR97 27-1041): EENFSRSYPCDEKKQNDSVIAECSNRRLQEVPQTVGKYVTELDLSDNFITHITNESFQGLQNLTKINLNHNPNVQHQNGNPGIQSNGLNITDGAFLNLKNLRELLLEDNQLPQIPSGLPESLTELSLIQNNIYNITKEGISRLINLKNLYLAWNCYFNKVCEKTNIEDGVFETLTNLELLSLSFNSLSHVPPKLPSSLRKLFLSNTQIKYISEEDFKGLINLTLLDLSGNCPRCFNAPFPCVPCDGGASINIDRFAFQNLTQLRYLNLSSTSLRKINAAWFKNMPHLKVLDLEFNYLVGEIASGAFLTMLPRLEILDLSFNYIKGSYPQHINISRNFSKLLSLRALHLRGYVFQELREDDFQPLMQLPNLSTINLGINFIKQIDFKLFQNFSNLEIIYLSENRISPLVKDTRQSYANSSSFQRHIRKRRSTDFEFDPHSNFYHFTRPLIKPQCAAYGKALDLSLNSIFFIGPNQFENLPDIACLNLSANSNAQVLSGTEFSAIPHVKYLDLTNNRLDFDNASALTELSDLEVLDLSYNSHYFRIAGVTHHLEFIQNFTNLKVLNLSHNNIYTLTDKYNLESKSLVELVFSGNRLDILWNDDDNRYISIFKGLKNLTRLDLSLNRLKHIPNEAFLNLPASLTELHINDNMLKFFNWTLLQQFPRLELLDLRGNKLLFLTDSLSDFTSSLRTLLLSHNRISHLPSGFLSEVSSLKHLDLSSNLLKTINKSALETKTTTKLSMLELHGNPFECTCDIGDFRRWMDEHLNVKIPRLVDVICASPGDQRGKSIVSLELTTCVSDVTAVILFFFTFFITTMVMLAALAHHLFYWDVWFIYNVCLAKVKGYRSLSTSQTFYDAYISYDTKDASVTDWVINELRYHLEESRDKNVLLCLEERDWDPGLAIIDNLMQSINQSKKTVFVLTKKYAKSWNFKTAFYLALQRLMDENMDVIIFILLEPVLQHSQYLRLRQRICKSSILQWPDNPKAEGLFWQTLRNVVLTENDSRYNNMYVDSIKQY
Assay: huPBMC TLR8 Antagonist IL-6 TR-FRET Assay
Type: cell-based
Design: Fresh blood was collected from normal human donors; endogenous in cells; host or cells: human PBMCs from fresh donor blood
Conditions: human PBMCs stimulated with ssRNA40 1 μg/ml (DOTAP), 14-16 hrs; IL-6 TR-FRET read-out
In short: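 Human PBMCs from fresh donor blood (150,000 cells/well) stimulated 14–16 h at 37 °C with DOTAP-complexed ssRNA40 (final 1 μg/ml for TLR8, 10 μg/mL for TLR7) or ODN2216 (final 0.3 μM, TLR9), 0.25% DMSO, ten-point 1/3 compound dilutions. Supernatant IL-6 read by HTRF (TLR8); IFNα by IFNα2b AlphaLISA (TLR7/TLR9).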

Compound	IC50 [nM]
Cc1cc(N2CCc3c(c(C)nn3CC34CCC(N)(CC3)CC4)C2)c2cnn(C)c2n1 [Compound No. 1, 4-((5-(1,6-dimethyl-1H-pyrazolo[3,4-b]pyridin-4-yl)-3-methyl-4,5,6,7-tetrahydro-1H-pyrazolo[4,3-c]pyridin-1-yl)methyl)bicyclo[2.2.2]octan-1-amine]	236
Cc1cc(N2CCc3c(c(C)nn3CC34CCC(N)(CC3)CC4)C2)c2cn[nH]c2n1 [Compound No. 2, 4-((3-methyl-5-(6-methyl-1H-pyrazolo[3,4-b]pyridin-4-yl)-4,5,6,7-tetrahydro-1H-pyrazolo[4,3-c]pyridin-1-yl)methyl)bicyclo[2.2.2]octan-1-amine]	> 10000
Cc1cc(N2CCc3c(c(C)nn3CC34CCC(N(C)C(=O)OC(C)(C)C)(CC3)CC4)C2)c2cnn(C)c2n1 [Compound No. 49, tert-butyl (4-((5-(1,6-dimethyl-1H-pyrazolo[3,4-b]pyridin-4-yl)-3-methyl-4,5,6,7-tetrahydro-1H-pyrazolo[4,3-c]pyridin-1-yl)methyl)bicyclo[2.2.2]octan-1-yl)(methyl)carbamate]	> 10000
CNC12CCC(Cn3nc(C)c4c3CCN(c3cc(C)nc5c3cnn5C)C4)(CC1)CC2 [Compound No. 50, 4-((5-(1,6-dimethyl-1H-pyrazolo[3,4-b]pyridin-4-yl)-3-methyl-4,5,6,7-tetrahydro-1H-pyrazolo[4,3-c]pyridin-1-yl)methyl)-N-methylbicyclo[2.2.2]octan-1-amine]	308
Cc1cc(N2CCc3c(c(C)nn3CC34CCC(NC(=O)OC5(C)CC5)(CC3)CC4)C2)c2cnn(C)c2n1 [Compound No. 51, 1-methylcyclopropyl (4-((5-(1,6-dimethyl-1H-pyrazolo[3,4-b]pyridin-4-yl)-3-methyl-4,5,6,7-tetrahydro-1H-pyrazolo[4,3-c]pyridin-1-yl)methyl)bicyclo[2.2.2]octan-1-yl)carbamate]	> 10000
COc1ccc(Cn2ncc3c(N4CCc5c(c(C)nn5CC56CCC(N)(CC5)CC6)C4)cc(C)nc32)cc1 [Compound No. 53, 4-((5-(1-(4-methoxybenzyl)-6-methyl-1H-pyrazolo[3,4-b]pyridin-4-yl)-3-methyl-4,5,6,7-tetrahydro-1H-pyrazolo[4,3-c]pyridin-1-yl)methyl)bicyclo[2.2.2]octan-1-amine]	1140
Cc1cc(N2CCc3c(c(C)nn3CC34CCC(N(C)C5COC5)(CC3)CC4)C2)c2cnn(C)c2n1 [Compound No. 77, N-(4-((5-(1,6-dimethyl-1H-pyrazolo[3,4-b]pyridin-4-yl)-3-methyl-4,5,6,7-tetrahydro-1H-pyrazolo[4,3-c]pyridin-1-yl)methyl)bicyclo[2.2.2]octan-1-yl)-N-methyloxetan-3-amine]	316
Cc1nn(CC23CCC(N)(CC2)CC3)c2c1CN(c1ccnc(-c3ccc(C#N)cc3)c1)CC2 [Compound No. 84, 4-(4-(1-((4-aminobicyclo[2.2.2]octan-1-yl)methyl)-3-methyl-6,7-dihydro-1H-pyrazolo[4,3-c]pyridin-5(4H)-yl)pyridin-2-yl)benzonitrile]	831
Cc1cc(N2CCc3c(c(C)nn3CC34CCC(O)(CC3)CC4)C2)c2cnn(C)c2n1 [compound 46, 4-((5-(1,6-dimethyl-1H-pyrazolo[3,4-b]pyridin-4-yl)-3-methyl-4,5,6,7-tetrahydro-1H-pyrazolo[4,3-c]pyridin-1-yl)methyl)bicyclo[2.2.2]octan-1-ol]	> 10000
Cc1cc(N2CCc3nn(CC45CC(N)(C4)C5)c(C)c3C2)c2cnn(C)c2n1 [compound 52, 3-((5-(1,6-dimethyl-1H-pyrazolo[3,4-b]pyridin-4-yl)-3-methyl-4,5,6,7-tetrahydro-2H-pyrazolo[4,3-c]pyridin-2-yl)methyl)bicyclo[1.1.1]pentan-1-amine]	> 10000
Cc1cc(N2CCc3c(c(C)nn3CC34CCC(NC(C)C)(CC3)CC4)C2)c2cnn(C)c2n1 [compound 55, 4-((5-(1,6-dimethyl-1H-pyrazolo[3,4-b]pyridin-4-yl)-3-methyl-4,5,6,7-tetrahydro-1H-pyrazolo[4,3-c]pyridin-1-yl)methyl)-N-isopropylbicyclo[2.2.]octan-1-amine]	420
Cc1cc(N2CCc3c(c(C)nn3CC34CCC(NC(C)CO)(CC3)CC4)C2)c2cnn(C)c2n1 (stereo not drawn) [compound 56, 2-((4-((5-(1,6-dimethyl-1H-pyrazolo[3,4-b]pyridin-4-yl)-3-methyl-4,5,6,7-tetrahydro-1H-pyrazolo[4,3-c]pyridin-1-yl)methyl)bicyclo[2.2.2]octan-1-yl)amino)propan-1-ol]	292
Cc1cc(N2CCc3c(c(C)nn3CC34CCC(N5CCC5)(CC3)CC4)C2)c2cnn(C)c2n1 [compound 64, 1-((4-(azetidin-1-yl)bicyclo[2.2.2]octan-1-yl)methyl)-5-(1,6-dimethyl-1H-pyrazolo[3,4-b]pyridin-4-yl)-3-methyl-4,5,6,7-tetrahydro-1H-pyrazolo[4,3-c]pyridine]	115
Cc1cc(N2CCc3c(c(C)nn3CC34CCC(N5C[C@@H](O)[C@@H](O)C5)(CC3)CC4)C2)c2cnn(C)c2n1 [compound 74, (3S,4R)-1-(4-((5-(1,6-dimethyl-1H-pyrazolo[3,4-b]pyridin-4-yl)-3-methyl-4,5,6,7-tetrahydro-1H-pyrazolo[4,3-c]pyridin-1-yl)methyl)bicyclo[2.2.2]octan-1-yl)pyrrolidine-3,4-diol]	158

Stronger by IC50, values ahead:

IC50 [nM]	Compound
53	Cc1cc(N2CCc3c(c(C)nn3CC34CCC(N5CCCC5)(CC3)CC4)C2)c2cnn(C)c2n1 [Compound No. 58, 5-(1,6-dimethyl-1H-pyrazolo[3,4-b]pyridin-4-yl)-3-methyl-1-((4-(pyrrolidin-1-yl)bicyclo[2.2.2]octan-1-yl)methyl)-4,5,6,7-tetrahydro-1H-pyrazolo[4,3-c]pyridine]
52	Cc1cc(N2CCc3c(c(C)nn3CC34CCC(N5CCOCC5)(CC3)CC4)C2)c2cnn(C)c2n1 [Compound No. 59, 4-(4-((5-(1,6-dimethyl-1H-pyrazolo[3,4-b]pyridin-4-yl)-3-methyl-4,5,6,7-tetrahydro-1H-pyrazolo[4,3-c]pyridin-1-yl)methyl)bicyclo[2.2.2]octan-1-yl)morpholine]
31	COCCNC12CCC(Cn3nc(C)c4c3CCN(c3cc(C)nc5c3cnn5C)C4)(CC1)CC2 [Compound No. 69, 4-((5-(1,6-dimethyl-1H-pyrazolo[3,4-b]pyridin-4-yl)-3-methyl-4,5,6,7-tetrahydro-1H-pyrazolo[4,3-c]pyridin-1-yl)methyl)-N-(2-methoxyethyl)bicyclo[2.2.2]octan-1-amine]
74	Cc1cc(N2CCc3c(c(C)nn3CC34CCC(NC5CCC5)(CC3)CC4)C2)c2cnn(C)c2n1 [compound 54, N-cyclobutyl-4-((5-(1,6-dimethyl-1H-pyrazolo[3,4-b]pyridin-4-yl)-3-methyl-4,5,6,7-tetrahydro-1H-pyrazolo[4,3-c]pyridin-1-yl)methyl)bicyclo[2.2.2]octan-1-amine]
110	CCNC12CCC(Cn3nc(C)c4c3CCN(c3cc(C)nc5c3cnn5C)C4)(CC1)CC2 [compound 57, 4-((5-(1,6-dimethyl-1H-pyrazolo[3,4-b]pyridin-4-yl)-3-methyl-4,5,6,7-tetrahydro-1H-pyrazolo[4,3-c]pyridin-1-yl)methyl)-N-ethylbicyclo[2.2.]octan-1-amine]
14	CCOCCNC12CCC(Cn3nc(C)c4c3CCN(c3cc(C)nc5c3cnn5C)C4)(CC1)CC2 [compound 71, 4-((5-(1,6-dimethyl-1H-pyrazolo[3,4-b]pyridin-4-yl)-3-methyl-4,5,6,7-tetrahydro-1H-pyrazolo[4,3-c]pyridin-1-yl)methyl)-N-(2-ethoxyethyl)bicyclo[2.2.2]octan-1-amine]
102	CCOCCN(CCOCC)C12CCC(Cn3nc(C)c4c3CCN(c3cc(C)nc5c3cnn5C)C4)(CC1)CC2 [compound 72, 4-((5-(1,6-dimethyl-1H-pyrazolo[3,4-b]pyridin-4-yl)-3-methyl-4,5,6,7-tetrahydro-1H-pyrazolo[4,3-c]pyridin-1-yl)methyl)-N,N-bis(2-ethoxyethyl)bicyclo[2.2.2]octan-1-amine]
